{
  "source": "patent US10272158B2",
  "about": "“Compounds for treating biofilm infection” (Board of Regents, The University of Texas System, priority 2014, dated 2019)",
  "assay_type_in_all_cases": "cell-based, Pseudomonas aeruginosa PAO1",
  "key": {"[1]": {"tested_on": "P. aeruginosa biofilm formation phase", "assay": "Crystal violet assay of biofilm biomass, biofilm formation phase", "protocol": "Bacterial cell suspension was added in sterile 96 well plates and incubated for 90 min under similar conditions as described in the section of Biofilm Formation. After the initial adhesion phase, adherent cells were treated with different samples in a concentration gradient, including control (PBS), tobramycin, and Tob-PEG. After 24 h incubation under 37° C. and 80 rpm, reduction assay of 2,3-bis(2-methoxy-4-nitro-5-sulfo-phenyl)-2H-tetrazolium-5-carboxanilide (XTT) was performed to quantify the viability of biofilm and crystal violet assay was used to measure biofilm biomass. At the end of incubation of both test and control biofilm, crystal violet assay was performed to quantify biofilm biomass. Biofilm was carefully washed twice with PBS and stained with 1% crystal violet solution for 15 min at 25° C. without shaking. Wells were carefully washed three times with PBS to remove excess stain and air dried in room temperature. Thirty percent acetic acid was added to the wells containing stained biofilm and incubated for 20 min at 25° C. The solution was transferred to a new well plate and optical density was measured at 570 nm."}, "[2]": {"tested_on": "P. aeruginosa pre-formed biofilm", "assay": "Elimination of pre-formed biofilm in time dependent test (XTT)", "conditions": "each at its biofilm MIC80 (Tob-PEG 27.81, tobramycin 89.80 μmol/L), 1-36 h", "protocol": "P. aeruginosa pre-formed biofilm was developed as described previously and was treated with different samples at respective biofilm MIC80 concentrations. The plates were then incubated for 24 h at 37° C. and 80 rpm. XTT reduction assay was performed to selected samples at predetermined time points (1 h, 2 h, 3 h, 4 h, 5 h, 6 h, 9 h, 12 h, 15 h, 18 h, 21 h, 24 h and 36 h after incubation) to assess the percentage of time dependent bacterial inhibition."}, "[3]": {"tested_on": "P. aeruginosa biofilm formation phase", "assay": "MIC80 in biofilm formation phase, XTT reduction assay", "conditions": "Pseudomonas aeruginosa, 24 h, read-out: critical concentration necessary for 80% suppression of P. aeruginosa viability (MIC80)", "protocol": "(§1) Pseudomonas aeruginosa (P. aeruginosa) PAO1 was used throughout the study. Blood agar and Brain heart infusion (BHI) solution were used for culturing P. aeruginosa.\n(§2) Prior to each experiment, P. aeruginosa was cultured on blood agar for 18 h at 37° C. A loopful of the overnight bacterial growth was inoculated into BHI medium, and incubated for 18 h in an orbital shaker (80 rpm) at 37° C. The resultant growth was harvested, washed twice in Phosphate Buffered Saline (PBS, pH 7.4) and resuspended. The concentration of P. aeruginosa was adjusted to 1×10^7 cells/mL by spectrophotometry and confirmed by hemocytometric counting.\n(§3) P. aeruginosa biofilm was developed as described (Bandara et al., 2010) with minor modifications. Commercially available pre-sterilized, polystyrene, flat bottom 96-well microtiter plates (BD Biosciences, California, USA) were used. […]\nBacterial cell suspension was added in sterile 96 well plates and incubated for 90 min under similar conditions as described in the section of Biofilm Formation. […] After 24 h incubation under 37° C. and 80 rpm, reduction assay of 2,3-bis(2-methoxy-4-nitro-5-sulfo-phenyl)-2H-tetrazolium-5-carboxanilide (XTT) was performed to quantify the viability of biofilm and crystal violet assay was used to measure biofilm biomass."}, "[4]": {"tested_on": "P. aeruginosa planktonic phase", "assay": "Minimum inhibitory concentration (MIC80) in planktonic phase, broth microdilution, optical density 595 nm", "conditions": "24 h, 80% growth inhibition", "protocol": "Pseudomonas aeruginosa (P. aeruginosa) PAO1 was used throughout the study. Blood agar and Brain heart infusion (BHI) solution were used for culturing P. aeruginosa. Prior to each experiment, P. aeruginosa was cultured on blood agar for 18 h at 37° C. A loopful of the overnight bacterial growth was inoculated into BHI medium, and incubated for 18 h in an orbital shaker (80 rpm) at 37° C. The resultant growth was harvested, washed twice in Phosphate Buffered Saline (PBS, pH 7.4) and resuspended. The concentration of P. aeruginosa was adjusted to 1×10^7 cells/mL by spectrophotometry and confirmed by hemocytometric counting. Briefly, bacterial cell suspension (5×10^5 cells/mL) were treated with the antibiotic in a concentration gradient and incubated in a 96 well microtiter plate for 24 h at 35° C. At the end of the incubation, the optical density of the bacterial growth was measured by a spectrophotometer at 595 nm. The lowest concentration of the antibiotic at which 80% of bacterial growth inhibition was achieved was considered as the MIC80 of this antibiotic against P. aeruginosa. The assay was performed quadruplicates at three times."}, "[5]": {"tested_on": "P. aeruginosa pre-formed biofilm", "assay": "MIC80 in pre-formed biofilm phase, XTT reduction assay", "conditions": "pre-formed biofilm (24 h), 24 h treatment", "protocol": "as §1, §2, §3\nP. aeruginosa pre-formed biofilm was developed after 24 h incubation of adherent cells in sterile 96 well plates, as described in the section of Biofilm Formation. […] At the end of incubation period, XTT reduction assay was performed to quantify the viability of biofilm and crystal violet assay was used to measure biofilm biomass."}},
  "note": "“And” between values parts separate entries of the source, which are not always exact repeats. Equal values may be shown once.",
  "data": [
    {"molecule": "NC[C@H]1O[C@H](O[C@H]2[C@H](O)[C@@H](O[C@H]3O[C@H](CO)[C@@H](O)[C@H](N)[C@H]3O)[C@H](N)C[C@@H]2N)[C@H](N)C[C@@H]1O", "note": "[tobramycin, Tobramycin]", "values": [
      {"measurement": "increment of the biofilm biomass compared to control", "setting": "[1]; 1.40 μmol/L, 24 h", "value": 17, "unit": "%"},
      {"measurement": "biomass change versus untreated control", "setting": "[1]; signed change", "value": "+17%"},
      {"measurement": "time dependent biofilm inhibition", "setting": "[2]", "value": "After 18 h, tobramycin was superior"},
      {"measurement": "MIC80", "setting": "[3]", "value": 1.4, "unit": "µM"},
      {"measurement": "Minimum inhibitory concentration (MIC80)", "setting": "[4]", "value": 1.4, "unit": "µmol/L"},
      {"measurement": "MIC80", "setting": "[4]; Pseudomonas aeruginosa", "value": 1.4, "unit": "µM"},
      {"measurement": "critical concentration needed for 80% inhibition of viable P. aeruginosa pre-formed biofilm (MIC80)", "setting": "[5]", "value": "89.80 µmol/L and 89.8 µmol/L"}
    ]}
  ]
}
